Consider 1 compound from patent US20160045442A1, “STABLE PHARMACEUTICAL COMPOSITIONS OF MESALAMINE” (CADILA HEALTHCARE LIMITED, priority 2014, published 2016).

This data set in a line: Bulk density and tapped density of mesalamine powder (USP Test 616). The following applies: mesalamine used to prepare the composition as per Example 3. The class given is physicochemical. From the text:
Important physicochemical characteristics of powders are the density properties such as bulk and tapped density, weight variation and flow properties such as angle of repose. Bulk density is the undisturbed packing density of that substance and tapped density relates to the packing density after tapping a bed of substance until no change in the packing density is seen. Bulk density and tapped density, can be determined using compendial bulk density apparatus, such as the method given in Test 616 “Bulk Density and Tapped Density,” United States Pharmacopeia 29, United States Pharmacopeial Convention, Inc., Rockville, Md., 2005 (“USP”).

Each structure is given as a SMILES string.

Turning to `Nc1ccc(O)c(C(=O)O)c1` [Mesalamine, mesalamine], the bulk density was 0.483 g/mL and the tapped density turned out to be 0.694 g/mL.
